Results published in patent publication US6506772B1, “Substituted [1,2,4]triazolo[1,5a]pyridine derivatives with activity as adenosine receptor ligands” (Hoffmann-La Roche Inc., priority 2000, dated 2003).

Experiments:
[1] = target: T1, human adenosine A2A receptor (Homo sapiens, UniProt P29274); assay: Human adenosine A2A receptor [3H]-SCH-58261 binding assay; settings: for Ki: affinity to human adenosine A2A receptor, read-out: Ki HA2A; for selectivity (A1/A2a): calculated ratio of the affinity to the HA1 receptor to the HA2a receptor
T1 construct: expressed in transfected cells; host or cells: CHO cells, Semliki Forest virus expression system; membrane preparation
T1 sequence (P29274 whole entry): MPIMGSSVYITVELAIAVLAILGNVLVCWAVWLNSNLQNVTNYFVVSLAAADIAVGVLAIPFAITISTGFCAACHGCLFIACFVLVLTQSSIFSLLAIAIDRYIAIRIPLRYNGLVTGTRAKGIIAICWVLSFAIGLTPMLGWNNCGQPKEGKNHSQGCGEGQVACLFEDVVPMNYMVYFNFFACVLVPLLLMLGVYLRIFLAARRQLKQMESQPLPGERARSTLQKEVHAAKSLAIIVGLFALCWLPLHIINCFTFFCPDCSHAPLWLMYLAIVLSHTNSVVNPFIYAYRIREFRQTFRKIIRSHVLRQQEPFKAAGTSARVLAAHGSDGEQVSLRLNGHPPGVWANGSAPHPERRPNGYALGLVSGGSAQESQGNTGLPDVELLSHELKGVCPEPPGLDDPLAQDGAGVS
Protocol: Human Adenosine A2A Receptor
The human adenosine A2A receptor was recombinantly expressed in chinese hamster ovary (CHO) cells using the semliki forest virus expression system. Cells were harvested, washed twice by centrifugation, homogenized and again washed by centrifugation. The final washed membrane pellet was suspended in a Tris (50 mM) buffer containing 120 mM NaCl, 5 mM KCl, 2 mM CaCl2 and 10 MM MgCl2 (pH 7.4) (buffer A). […] Compounds were tested at 10 concentrations from 10 μM-0.3 nM. All assays were conducted in duplicate and repeated at least two times. Assay plates were incubated for 1 hour at room temperature before centrifugation and then bound ligand determined using a Packard Topcount scintillation counter. IC50 values were calculated using a non-linear curve fitting program and Ki values calculated using the Cheng-Prussoff equation.

HA1 adenosine receptor = target: T2, HA1 adenosine receptor (Homo sapiens, UniProt P30542); assay: Human adenosine A1 receptor affinity (Ki hA1); type: binding; settings: affinity to human adenosine A1 receptor
T2 sequence (P30542 1-326): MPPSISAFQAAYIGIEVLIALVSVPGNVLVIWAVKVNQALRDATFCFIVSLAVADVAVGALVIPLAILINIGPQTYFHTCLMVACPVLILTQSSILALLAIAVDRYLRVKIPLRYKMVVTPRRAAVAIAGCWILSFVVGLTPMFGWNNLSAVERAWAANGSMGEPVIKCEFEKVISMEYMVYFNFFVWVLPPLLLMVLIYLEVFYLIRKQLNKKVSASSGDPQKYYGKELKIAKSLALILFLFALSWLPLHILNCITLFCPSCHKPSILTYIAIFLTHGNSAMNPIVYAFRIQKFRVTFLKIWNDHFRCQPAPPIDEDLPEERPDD

Row | Compound | Ki [1] [nM] | selectivity (A1/A2a) [1] | Ki (HA1 adenosine receptor) [nM]
1 | Nc1cc(C(=O)NCCc2ccccc2Cl)cc2nc(-c3ccccn3)nn12 [Example 50, 5-Amino-2-pyridin-2-yl-[1,2,4]triazolo[1,5-a]pyridine-7-carboxylic acid [2-(2-chloro-phenyl)-ethyl]-amide] | 119 | 1.0 | 123
2 | COc1ccc(-c2nc3cc(C(=O)NCc4ccccc4Br)cc(N)n3n2)s1 [Example 52, 5-Amino-2-(5-methoxy-thiophen-2-yl)-[1,2,4]triazolo[1,5-a]pyridine-7-carboxylic acid 2-bromo-benzylamide] | 108 | 0.8 | 85.7
3 | COc1ccc(-c2nc3cc(C(=O)NCc4ccccc4Cl)cc(N)n3n2)s1 [Example 56, 5-Amino-2-(5-methoxy-thiophen-2-yl)-[1,2,4]triazolo[1,5-a]pyridine-7-carboxylic acid 2-chloro-benzylamide] | 82 | 1.1 | 86.3
4 | COc1ccc(-c2nc3cc(C(=O)NCc4ccccc4)cc(N)n3n2)s1 [Example 62, 5-Amino-2-(5-methoxy-thiophen-2-yl)-[1,2,4]triazolo[1,5-a]pyridine-7-carboxylic acid benzylamide] | 176 | 0.6 | 113
5 | CCCCCCNC(=O)c1cc(N)n2nc(-c3ccc(OC)s3)nc2c1 [Example 63, 5-Amino-2-(5-methoxy-thiophen-2-yl)-[1,2,4]triazolo[1,5-a]pyridine-7-carboxylic acid hexylamide] | 181 | 1.4 | 247
6 | COc1ccc(-c2nc3cc(C(=O)NC4CCCCC4)cc(N)n3n2)s1 [Example 64, 5-Amino-2-(5-methoxy-thiophen-2-yl)-[1,2,4]triazolo[1,5-a]pyridine-7-carboxylic acid cyclohexylamide] | 227 | 1.0 | 223
7 | COc1ccc(-c2nc3cc(C(=O)N4CCCCC4)cc(N)n3n2)s1 [Example 66, [5-Amino-2-(5-methoxy-thiophen-2-yl)-[1,2,4]triazolo[1,5-a]pyridin-7-yl]-piperidin-1-yl-methanone] | 174 | 3.6 | 623
8 | CCCCNC(=O)c1cc(N)n2nc(-c3ccc(OC)s3)nc2c1 [Example 67, 5-Amino-2-(5-methoxy-thiophen-2-yl)-[1,2,4]triazolo[1,5-a]pyridine-7-carboxylic acid butylamide] | 99.1 | 1.4 | 136
9 | CCN(CC)C(=O)c1cc(N)n2nc(-c3ccc(OC)s3)nc2c1 [Example 68, 5-Amino-2-(5-methoxy-thiophen-2-yl)-[1,2,4]triazolo[1,5-a]pyridine-7-carboxylic acid diethylamide] | 171 | 4.2 | 717
10 | COc1ccc(-c2nc3cc(C(=O)NC4CCC4)cc(N)n3n2)s1 [Example 70, 5-Amino-2-(5-methoxy-thiophen-2-yl)-[1,2,4]triazolo[1,5-a]pyridine-7-carboxylic acid cyclobutylamide] | 113 | 1.3 | 148
11 | COc1ccc(-c2nc3cc(C(=O)N(C)CCc4ccccc4)cc(N)n3n2)s1 [Example 77, 5-Amino-2-(5-methoxy-thiophen-2-yl)-[1,2,4]triazolo[1,5-a]pyridine-7-carboxylic acid methyl-phenethyl-amide] | 116 | 2.5 | 295
12 | COc1ccc(-c2nc3cc(C(=O)NCCc4ccccc4Cl)cc(N)n3n2)s1 [Example 78, 5-Amino-2-(5-methoxy-thiophen-2-yl)-[1,2,4]triazolo[1,5-a]pyridine-7-carboxylic acid [2-(2-chloro-phenyl)-ethyl]-amide] | 389 | 0.3 | 97.4
13 | Nc1cc(C(=O)NCc2ccccc2Br)cc2nc(-c3cccnc3)nn12 [Example 79, 5-Amino-2-pyridin-3-yl-[1,2,4]triazolo[1,5-a]pyridine-7-carboxylic acid 2-bromo-benzylamide] | 152 | 9.2 | 1400
14 | CCCCNC(=O)c1cc(N)n2nc(-c3cccnc3)nc2c1 [Example 80, 5-Amino-2-pyridin-3-yl-[1,2,4]triazolo[1,5-a]pyridine-7-carboxylic acid butylamide] | 282 | 13.4 | 3770
15 | Nc1cc(C(=O)NC2CCC2)cc2nc(-c3cccnc3)nn12 [Example 81, 5-Amino-2-pyridin-3-yl-[1,2,4]triazolo[1,5-a]pyridine-7-carboxylic acid cyclobutylamide] | 315 | 13.9 | 4390

These reach a lower Ki [1]. Values come first.

Row | Ki [1] [nM] | selectivity (A1/A2a) [1] | Ki (HA1 adenosine receptor) [nM] | Compound
16 | 53.5 | 2.4 | 128 | COc1ccccc1CCNC(=O)c1cc(N)n2nc(-c3ccccn3)nc2c1 [Example 45, 5-Amino-2-pyridin-2-yl-[1,2,4]triazolo[1,5-a]pyridine-7-carboxylic acid [2-(2-methoxy-phenyl)-ethyl]-amide]
17 | 61.1 | 3.0 | 184 | Nc1cc(C(=O)NCc2ccccc2)cc2nc(-c3ccccn3)nn12 [Example 46, 5-Amino-2-pyridin-2-yl-[1,2,4]triazolo[1,5-a]pyridine-7-carboxylic acid benzylamide]
18 | 37.5 | 8.4 | 316 | CCCCCCNC(=O)c1cc(N)n2nc(-c3ccccn3)nc2c1 [Example 47, 5-Amino-2-pyridin-2-yl-[1,2,4]triazolo[1,5-a]pyridine-7-carboxylic acid hexylamide]
19 | 62.1 | 5.9 | 366 | Nc1cc(C(=O)NC2CCCCC2)cc2nc(-c3ccccn3)nn12 [Example 48, 5-Amino-2-pyridin-2-yl-[1,2,4]triazolo[1,5-a]pyridine-7-carboxylic acid cyclohexylamide]
20 | 34.3 | 7.1 | 242 | CCCCNC(=O)c1cc(N)n2nc(-c3ccccn3)nc2c1 [Example 49, 5-Amino-2-pyridin-2-yl-[1,2,4]triazolo[1,5-a]pyridine-7-carboxylic acid butylamide]
21 | 22.2 | 5.8 | 129 | COc1ccc(-c2nc3cc(C(=O)N(Cc4ccccc4)Cc4ccccc4)cc(N)n3n2)s1 [Example 51, 5-Amino-2-(5-methoxy-thiophen-2-yl)-[1,2,4]triazolo[1,5-a]pyridine-7-carboxylic acid dibenzylamide]
22 | 28.3 | 2.7 | 76.4 | COc1ccc(-c2nc3cc(C(=O)N(Cc4ccccc4)C(C)C)cc(N)n3n2)s1 [Example 55, 5-Amino-2-(5-methoxy-thiophen-2-yl)-[1,2,4]triazolo[1,5-a]pyridine-7-carboxylic acid benzyl-isopropyl-amide]
23 | 71.9 | 0.7 | 52.7 | COc1ccc(-c2nc3cc(C(=O)NCc4ccccc4OC)cc(N)n3n2)s1 [Example 58, 5-Amino-2-(5-methoxy-thiophen-2-yl)-[1,2,4]triazolo[1,5-a]pyridine-7-carboxylic acid 2-methoxy-benzylamide]
24 | 42.9 | 2.5 | 106 | CCN(Cc1ccccc1)C(=O)c1cc(N)n2nc(-c3ccc(OC)s3)nc2c1 [Example 59, 5-Amino-2-(5-methoxy-thiophen-2-yl)-[1,2,4]triazolo[1,5-a]pyridine-7-carboxylic acid benzyl-ethyl-amide]
25 | 51.5 | 4.1 | 211 | CCN(C(=O)c1cc(N)n2nc(-c3ccc(OC)s3)nc2c1)C(C)C [Example 65, 5-Amino-2-(5-methoxy-thiophen-2-yl)-[1,2,4]triazolo[1,5-a]pyridine-7-carboxylic acid ethyl-isopropyl-amide]
26 | 64.9 | 2.8 | 180 | CCCNC(=O)c1cc(N)n2nc(-c3ccc(OC)s3)nc2c1 [Example 71, 5-Amino-2-(5-methoxy-thiophen-2-yl)-[1,2,4]triazolo[1,5-a]pyridine-7-carboxylic acid propylamide]
27 | 37.4 | 3.6 | 136 | CCCCN(Cc1ccccc1)C(=O)c1cc(N)n2nc(-c3ccc(OC)s3)nc2c1 [Example 73, 5-Amino-2-(5-methoxy-thiophen-2-yl)-[1,2,4]triazolo[1,5-a]pyridine-7-carboxylic acid benzyl-butyl-amide]
28 | 26.6 | 0.6 | 15.8 | COc1ccc(-c2nc3cc(C(=O)N(CCc4ccccc4)Cc4ccccc4)cc(N)n3n2)s1 [Example 75, 5-Amino-2-(5-methoxy-thiophen-2-yl)-[1,2,4]triazolo[1,5-a]pyridine-7-carboxylic acid benzyl-phenethyl-amide]
